Reference: article PMC9103596, “The inhibitory effect of boric acid on hypoxia-regulated tumour-associated carbonic anhydrase IX” (Journal of Enzyme Inhibition and Medicinal Chemistry, 2022)
pIC50, pKi: −log10 of the molar value. Read-outs that look alike come from different tables or passages of the source.

Tests used:
hCA I = hCA I (Homo sapiens, UniProt P00915); conditions: read-out: KI hCA I; stopped-flow CO2 hydrase assay, mean from three assays
Procedure: (§1) The uncatalysed rates were determined in the same manner and subtracted from the total observed rates. Stock solutions of BA (or other inhibitors) (100 mM) were prepared in distilled – deionised water, and dilutions up to 0.01 nM were done thereafter with the assay buffer. Inhibitor and enzyme solutions were preincubated together for 6 h at room temperature prior to assay in order to allow for the formation of the E–I complex. The inhibition constants were obtained by nonlinear least-squares methods using PRISM 3 and the Cheng–Prusoff equation, as reported earlier, and represent the mean from at least three different determinations.

hCA II = hCA II (Homo sapiens, UniProt P00918); conditions: read-out: KI hCA II; stopped-flow CO2 hydrase assay, mean from three assays
Procedure: as §1

hCA IX = hCA IX (Homo sapiens, UniProt Q16790); conditions: read-out: KI hCA IX
Procedure: as §1

hCA XII = hCA XII (Homo sapiens, UniProt O43570); conditions: read-out: KI hCA XII; stopped-flow CO2 hydrase assay, mean from three assays
Sequence of hCA XII (O43570 25-354): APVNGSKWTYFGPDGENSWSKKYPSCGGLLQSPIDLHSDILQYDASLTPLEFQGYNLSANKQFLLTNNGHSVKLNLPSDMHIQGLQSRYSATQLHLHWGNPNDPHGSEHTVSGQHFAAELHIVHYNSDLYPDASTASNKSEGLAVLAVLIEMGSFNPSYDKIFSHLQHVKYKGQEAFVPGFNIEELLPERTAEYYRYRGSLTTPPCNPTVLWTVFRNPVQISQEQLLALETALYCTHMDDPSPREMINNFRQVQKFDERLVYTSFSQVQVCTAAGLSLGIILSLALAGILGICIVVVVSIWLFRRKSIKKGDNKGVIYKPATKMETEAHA
Procedure: as §1

[1] = test system: A375 (human malignant melanoma) cells; conditions: read-out: IC50 cell viability; A375, WST-1, 48 h
Procedure: (§2) Cells were incubated at 37 °C and 5% CO2 in 25cm[3] flasks. On reaching 80–90% confluence, cell harvesting was performed by washing cells in phosphate-buffered saline (PBS) and then detached from the flask surface using trypsin-EDTA. Cell count was determined using a hematocytometer. Two separate cultures each for both HT29 and A375 were grown, one under normoxic conditions and the second one under hypoxic conditions. The normoxic cultures for HT29 and A375 were grown and incubated at normoxic conditions (37 °C and 5% CO2). […] The hypoxic chamber was placed in a 37 °C incubator for 4 h.
(§3) WST-1 reagent was used to measure mitochondrial dehydrogenase activity and determine cell viability. A 0.5 M stock of B(OH)3 was prepared by dissolving 0.309 g of B(OH)3 in 10 ml of distilled water. HT29 and A375 cells were seeded on 96-well plates and incubated for 24 h, allowing them to adhere to the wells before treatment with B(OH)3. Cells were then treated with 2.5, 5, 10, 25 50, 100, and 200 mM B(OH)3 and topped to 100 µL with a prepared cell medium (one well remaining as an untreated, negative control). The plates were then incubated for 24 and 48 h periods. After each period, […] WST-1 reagent was added to each well and then the plate was incubated for another 3–4 h at 37 °C with 5% CO2. The plates were read by using an Epoch microplate reader (BioTek, Cambridge, MA) with a wavelength of 450 nm. The results were analysed by using GraphPad Prism version 9 (Graphpad Software Inc., La Jolla, CA), for determining the IC50 values, with AZA as standard CA inhibitor. HT29 and A375 cells were seeded 0.3 × 10^6 cells/well into two separate six-well plates. On each well-plate, one column was treated with BA, the second was treated with AZA, and the third column was left untreated, serving as a control.

[2] = test system: CA IX levels in A375 cells; conditions: treated at IC50 concentration for 24 h, ELISA
Procedure: as §2, §3

[3] = test system: HT29 (human colon cancer) cells; conditions: read-out: IC50 cell viability
Procedure: as §2, §3

[4] = test system: CA IX levels in HT29 cells; conditions: treated at IC50 concentration for 24 h, ELISA
Procedure: Cells were incubated at 37 °C and 5% CO2 in 25cm[3] flasks. On reaching 80–90% confluence, cell harvesting was performed by washing cells in phosphate-buffered saline (PBS) and then detached from the flask surface using trypsin-EDTA. Cell count was determined using a hematocytometer. Two separate cultures each for both HT29 and A375 were grown, one under normoxic conditions and the second one under hypoxic conditions. The normoxic cultures for HT29 and A375 were grown and incubated at normoxic conditions (37 °C and 5% CO2). […] The hypoxic chamber was placed in a 37 °C incubator for 4 h. Hypoxia conditions were confirmed by detecting HIF-1α protein level by using an ELISA kit (Shangai Koon, Shanghai, China).
HT29 and A375 cells were seeded 0.3 × 10^6 cells/well into two separate six-well plates. On each well-plate, one column was treated with BA, the second was treated with AZA, and the third column was left untreated, serving as a control. […] The plates were then set aside to incubate for 24 h under normoxic conditions (37 °C and 5% CO2).
The lysates were collected by centrifugation at 13,000 × g for 15 min at 4 °C. […] These protein levels were determined by using CA IX ELISA kit and HIF1α ELISA kit according to the manufacturer’s instructions. […] Of 50 µL of the stop solution was then added and the microplates were read at 450 nm using the Epoch micro-plate reader (BioTek, Cambridge, MA).

[5] = test system: androgen-sensitive LNCaP prostate cancer cells; conditions: nude mice injected with LNCaP cells, treated with BA; cited from earlier work

Sequence of hCA I (P00915 whole entry): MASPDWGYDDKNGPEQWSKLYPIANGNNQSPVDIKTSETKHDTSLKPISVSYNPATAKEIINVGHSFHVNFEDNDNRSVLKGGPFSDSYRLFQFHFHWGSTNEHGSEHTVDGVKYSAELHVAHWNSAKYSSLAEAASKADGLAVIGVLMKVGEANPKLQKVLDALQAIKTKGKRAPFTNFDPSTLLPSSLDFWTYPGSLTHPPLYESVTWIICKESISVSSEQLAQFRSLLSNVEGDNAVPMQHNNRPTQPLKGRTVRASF

## OB(O)O [Boric acid]
hCA I
  pKi: 1.52
hCA II
  pKi: 1.39
hCA IX
  pKi: 2.55
hCA XII
  pKi: 2.21
[1]
  pIC50: 1.81
[2]; A375 hypoxic cell cultures
  CA IX levels compared to control: significantly reduced
[2]; A375 normoxic cell cultures
  CA IX levels compared to control: significantly reduced
[3]; HT29, WST-1, 24 h
  pIC50: 1.71
[3]; HT29, WST-1, 48 h
  pIC50: 1.64
[4]; HT29 hypoxic cell cultures
  CA IX levels compared to control: increase
[4]; HT29 normoxic cell cultures
  CA IX levels compared to control: slight increase
[5]
  decrease in plasma PSA levels: 88%
  decrease in tumour growth: 25 − 35%
